The values below are quoted from earlier work in patent US20040259096A1, “Receptor capture assay” (priority 2001, published 2004).

This series concerns the target T1, AhR (Homo sapiens, UniProt P35869).
T1 sequence (P35869 11-848): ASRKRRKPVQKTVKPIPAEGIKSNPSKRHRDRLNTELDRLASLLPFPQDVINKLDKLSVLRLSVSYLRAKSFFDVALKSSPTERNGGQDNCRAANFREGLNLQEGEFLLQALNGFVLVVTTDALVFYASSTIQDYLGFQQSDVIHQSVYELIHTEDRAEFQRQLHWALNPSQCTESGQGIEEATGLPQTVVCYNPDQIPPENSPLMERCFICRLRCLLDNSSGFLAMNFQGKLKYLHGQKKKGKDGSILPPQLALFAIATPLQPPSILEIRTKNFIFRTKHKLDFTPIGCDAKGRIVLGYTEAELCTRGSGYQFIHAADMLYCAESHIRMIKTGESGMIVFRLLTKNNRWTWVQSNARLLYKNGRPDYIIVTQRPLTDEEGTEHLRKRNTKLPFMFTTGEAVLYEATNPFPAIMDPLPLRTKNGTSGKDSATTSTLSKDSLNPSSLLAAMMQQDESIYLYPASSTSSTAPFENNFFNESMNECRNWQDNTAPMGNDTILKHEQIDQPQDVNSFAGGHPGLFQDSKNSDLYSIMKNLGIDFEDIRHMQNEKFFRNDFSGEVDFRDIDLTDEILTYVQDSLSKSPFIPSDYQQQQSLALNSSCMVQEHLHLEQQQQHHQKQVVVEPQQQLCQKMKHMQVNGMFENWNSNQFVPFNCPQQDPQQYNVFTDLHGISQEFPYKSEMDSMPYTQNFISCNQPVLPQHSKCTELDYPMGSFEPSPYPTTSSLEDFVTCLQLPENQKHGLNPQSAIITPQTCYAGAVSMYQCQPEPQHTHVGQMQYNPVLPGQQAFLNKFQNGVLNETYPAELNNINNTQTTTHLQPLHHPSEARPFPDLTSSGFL
The conditions noted are these: Van den Berg et al., 1998; cited from earlier work.

Consider `Clc1cc2c(cc1Cl)Oc1cc(Cl)c(Cl)cc1O2` [TCDD, 2,3,7,8-tetrachlorodibenzo-p-dioxin], for which the “toxic equivalency factor (TEF) value” is listed as 1.
